“And” between values parts separate entries of the source, which are not always exact repeats. Equal values may be shown once.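 Where inhibition never reached the appropriate level, the endpoint shown equals the highest concentration tested. Otherwise, values were interpolated linearly from a five-concentration, 48-hour dose response in 96-well plates. GI50: concentration for 50% inhibition of growth. TGI: total growth inhibition.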
Key:
Assay in all cases: inhibition of tumour cell growth, NCI panel, 48 h
[1] = test system: SF-295 CNS
[2] = test system: SF-268 CNS
[3] = test system: UACC-257 melanoma
[4] = test system: SF-539 CNS
[5] = test system: SNB-75 CNS
[6] = test system: UACC-62 melanoma
[7] = test system: SW-620 colon
[8] = test system: SN12C renal
[9] = test system: OVCAR-8 ovarian
[10] = test system: HCT-116 colon
[11] = test system: U251 CNS
[12] = test system: SK-MEL-28 melanoma
[13] = test system: HCT-15 colon
[14] = test system: A498 renal

Structure (SMILES)	TGI [1]	TGI [2]	TGI [3]	TGI [4]	TGI [5]	TGI [6]	TGI [7] [µM]	TGI [8]	TGI [9]	TGI [10] [µM]	TGI [11]	TGI [12]	TGI [13]	TGI [14]	GI50 [13] [µM]	GI50 [1]	GI50 [2]	GI50 [5]	GI50 [6] [µM]	GI50 [10]
O=C1C(Cl)N(c2c(Cl)cccc2Cl)C1c1c[nH]c2ccccc12 (stereo unspecified)	> 100 µM	> 100 µM	> 100 µM	> 100 µM	> 100 µM	> 100 µM	> 100	> 100 µM	> 100 µM	> 100	> 100 µM	> 100 µM								
O=[N+]([O-])c1ccc(SN=S=NSc2cccc(SN=S=NSc3ccc([N+](=O)[O-])cc3)c2)cc1	> 100 µM	> 100 µM	> 100 µM			> 100 µM	60.3	29.2 µM	53.4 µM	> 100	32 µM	> 100 µM	57.8 µM	> 100 µM						
CSc1ncnc2c1cnn2Cc1cnnn1COCC(O)CO (stereo unspecified)	> 100 µM	46.5 µM	> 100 µM	> 100 µM		> 100 µM	> 100	> 100 µM	> 100 µM	> 100	> 100 µM	> 100 µM	> 100 µM	> 100 µM						
C/C(=C/C(=O)Nc1ccccc1)Nc1onc(C)c1C	> 100 µM	> 100 µM	> 100 µM	> 100 µM	> 100 µM	> 100 µM	> 100	> 100 µM	> 100 µM	> 100	> 100 µM	> 100 µM	> 100 µM	> 100 µM						
Brc1ccc(C2C3CSc4ccccc4C3=NN2c2ccccc2)cc1 (stereo unspecified)		> 100 µM	95.6 µM	> 100 µM	> 100 µM	> 100 µM	> 100	> 100 µM	> 100 µM	> 100	> 100 µM	> 100 µM	> 100 µM	> 100 µM						
O=NN1C(c2ccccc2)CNC(=O)CC1c1ccccc1 (stereo unspecified)	98.8 µM	> 100 µM	> 100 µM	96.1 µM	> 67.9 µM	> 100 µM	> 100	> 100 µM	> 100 µM	> 100	> 100 µM	> 100 µM	> 100 µM	> 100 µM						
CSc1ncnc2c1cnn2Cc1cn(COCCO)nn1		> 100 µM	> 100 µM	> 100 µM		> 100 µM	> 100	> 100 µM		> 100	> 100 µM	> 100 µM	> 100 µM	> 100 µM						
O=C1OC(c2ccccc2)=NC1c1ccccc1 (stereo unspecified)	> 100 µM	> 100 µM	> 100 µM	> 100 µM	> 100 µM	> 100 µM	> 100	> 100 µM	> 100 µM	> 100	> 100 µM	> 100 µM	> 100 µM	> 100 µM						
CN(C)CCNc1ccc2ncn3c4ccccc4c(=O)c1c23	13.4 µM	20.2 µM	11.5 µM	16.9 µM	16 µM	12.3 µM	12.9	38.4 µM	10.7 µM	12	15.8 µM	15.2 µM	13.9 µM	21.1 µM						
C1CNOCCCONCCCNOCCCONC1	> 100 µM	> 100 µM	> 100 µM		> 100 µM	> 100 µM	> 100	> 100 µM	> 100 µM	> 100	> 100 µM	> 100 µM	> 100 µM	> 100 µM						
N#C/C(=C\c1ccncc1)c1csc2ccccc12	> 100 µM	82.5 µM	> 75.3 µM	48.9 µM	78.5 µM	> 76.4 µM	67.7	> 74.8 µM	> 85.1 µM	33.4	61.9 µM	> 100 µM	77.4 µM	66.6 µM						
S=c1sc2c(s1)SC(c1ccccc1)CS2 (stereo unspecified)	> 100 µM	> 100 µM	> 100 µM	> 100 µM	> 94.2 µM	> 100 µM	> 100	> 100 µM	> 100 µM	> 100	> 100 µM	> 100 µM	> 100 µM	> 100 µM						
O=C(NN1C(=O)C(Cl)C1c1ccccc1O)c1ccccc1O (stereo unspecified)	> 100 µM	> 100 µM	> 100 µM	48.7 µM	> 100 µM	> 100 µM	> 100	> 100 µM	> 100 µM	> 100	> 100 µM	> 100 µM								
O=[N+]([O-])C(=C/c1ccccc1)/C(=C\c1ccccc1)[N+](=O)[O-]	36.2 µM	50 µM	32.1 µM	12.7 µM	37 µM	30.7 µM	28.6	49.4 µM	47.1 µM	31.7	29 µM	31.2 µM								
Cc1c(O)c(=O)ccn1CCN		> 100 µM	> 100 µM		> 100 µM	> 100 µM	> 100	> 100 µM	> 100 µM	> 100	> 100 µM	> 100 µM	> 100 µM	> 100 µM						
NS(=O)(=O)c1ccc(NC(=O)N/N=C/c2ccccc2O)cc1	> 100 µM	> 100 µM	> 100 µM	> 100 µM	> 100 µM	> 100 µM	> 100	> 100 µM	> 100 µM	> 100	> 100 µM	> 100 µM	> 100 µM	> 100 µM						
C#CC[C@@H]1C(=O)N(Cc2ccc(OC)cc2)[C@@H](C(C)C)C(=O)N1Cc1ccc(OC)cc1	> 100 µM	> 100 µM	> 100 µM	> 100 µM	95 µM	> 100 µM	> 100	> 100 µM	> 100 µM	> 100	> 100 µM	> 100 µM	> 100 µM	> 100 µM						

Structure (SMILES)	TGI [1]	TGI [2]	TGI [3]	TGI [4]	TGI [5]	TGI [6]	TGI [7] [µM]	TGI [8]	TGI [9]	TGI [10] [µM]	TGI [11]	TGI [12]	TGI [13]	TGI [14]	GI50 [13] [µM]	GI50 [1]	GI50 [2]	GI50 [5]	GI50 [6] [µM]	GI50 [10]
CCCCCC(=O)N[C@@H](c1ccco1)[C@@H](O)C(=O)O[C@H]1C[C@@]2(O)[C@@H](OC(=O)c3ccccc3)[C@@H]3[C@]4(OC(C)=O)CO[C@@H]4C[C@H](O)[C@@]3(C)C(=O)[C@H](OC(C)=O)C(=C1C)C2(C)C	0.0284 µM	> 25 µM							> 25 µM	> 25	> 25 µM		> 25 µM		0.0396	0.0009 µM	0.0161 µM	0.00226 µM	0.00401	
C[N+](C)(CCCCCC[N+](C)(C)CCCN1C(=O)c2cccc3cccc(c23)C1=O)CCCN1C(=O)c2cccc3cccc(c23)C1=O	> 100 µM	> 100 µM	> 100 µM	> 100 µM		> 100 µM	> 100	> 100 µM	> 100 µM	> 100	> 100 µM	> 100 µM	> 100 µM	> 100 µM						
COC(=O)C(CC(C)C)NC(=O)C(NC(=O)c1ccc(-c2ccc(Cl)cc2Cl)o1)C(C)C (stereo unspecified)	52.6 µM	56.6 µM	64.9 µM	> 100 µM	> 100 µM	44.8 µM	> 100	39.2 µM	> 100 µM	29.2	46 µM	> 100 µM	75.6 µM							
CC(C)=CCCC(C)(OC1OC(CO)C(O)C(O)C1O)C1CCC2(C)C1C(O)CC1C3(C)CCC(O)C(C)(C)C3C(OC3OC(CO)C(O)C(O)C3OC3OC(C)C(O)C(O)C3O)CC12C (stereo unspecified) (tested in a mixture with another compound)	> 75 µM	> 75 µM	> 75 µM	> 75 µM	> 75 µM	> 75 µM	> 75	> 75 µM	> 75 µM	> 75	> 75 µM	> 75 µM	> 75 µM	> 75 µM						
COc1ccccc1/C=C(/C)[N+](=O)[O-]	20 µM and 6.33 µM	30.4 µM and 4.94 µM	3.4 µM and 3.53 µM	6.6 µM and 3.71 µM	> 100 µM and 54.7 µM	3.93 µM and 3.12 µM	43.1	4.96 µM and 4.41 µM	4 µM and 4.24 µM		4.19 µM and 3.43 µM	5.64 µM and 4.97 µM	7.43 µM and 5.11 µM	21.5 µM and 18.4 µM		5.31 µM and 2.53 µM	5.87 µM and 2.18 µM	14.1 µM and 6.99 µM		5.36 µM and 2.35 µM
CC(C)(O)/C1=C/C=C/CCCCCCCCCC1	> 100 µM	> 100 µM	> 100 µM		2.85 µM	> 100 µM	> 100	> 100 µM	> 100 µM	> 100	> 100 µM	> 100 µM	> 100 µM	> 100 µM						
COc1ccc(Nc2nc3ccccc3n3cccc23)cc1OC	35.4 µM	53.3 µM	29.4 µM	35 µM		27.4 µM	36.6		29.5 µM	36.4	35.9 µM	28.9 µM	31.6 µM	55.8 µM						
O=S(O)CCCCCSSc1ccccc1		85.5 µM	> 100 µM	62.6 µM	99.5 µM	79.9 µM		> 100 µM		70.2	94.1 µM	> 100 µM		> 100 µM						
COc1cc(OC2OC(CO)C(O)C(O)C2O)c2c(O)c3c(=O)cc(C)oc3cc2c1 (stereo unspecified)	> 100 µM	> 100 µM	> 100 µM	> 100 µM	> 100 µM	> 100 µM	> 100		> 100 µM	> 100	> 100 µM	> 100 µM	> 100 µM	> 100 µM						
OCC1O[C@H](O[C@@H]2CCCN3CC(O)C(O)[C@@H]23)C(O)C(O)C1O (stereo partly specified)	> 100 µM	> 100 µM	> 100 µM	> 100 µM	> 100 µM	> 100 µM	> 100	> 100 µM	> 100 µM	> 100	> 100 µM	> 100 µM	> 100 µM	> 100 µM						
FC(F)(F)c1ccc2c(c1)N(CCCNCCN1CCOCC1)c1ccccc1S2	27.4 µM	37.2 µM	23.3 µM	16.9 µM	20.9 µM	27.8 µM	21.9	26.9 µM	32.8 µM	11.2	23.7 µM	17.3 µM	19.5 µM	34.9 µM						
OCC#CCNCl	> 100 µM	> 100 µM	> 100 µM	> 100 µM	> 100 µM	> 100 µM	> 100	> 100 µM	> 100 µM	> 100	> 100 µM	> 100 µM	> 100 µM	> 100 µM						
CCOC(=O)Cc1cc(OC)c(OC)cc1/C(Cl)=C(\CO)c1ccc(OC)c(OC)c1	> 100 µM		> 100 µM		54 µM	> 100 µM	> 100	> 100 µM	> 100 µM	> 100	> 100 µM	> 100 µM	> 100 µM							
Cc1ccc(/C=C2\Sc3scc(-c4ccccc4)[n+]3C2=O)cc1	> 70.3 µM	45.5 µM	> 62.3 µM	> 60.6 µM	> 58.9 µM	45.6 µM	> 52.4	> 54.2 µM	> 56.6 µM	> 52.1	47.5 µM	> 100 µM	50.8 µM							
Nc1nc(Nc2ccc(Cl)c(Cl)c2)nc2nc[nH]c12	35.7 µM	22.9 µM	32.7 µM	26.7 µM	20.9 µM	29 µM	41.6	44.6 µM	28 µM	34.1	36.5 µM		37.2 µM	21.7 µM						
CCNC(=O)C(C)C1CCC2(C)C=CC(=O)C(C)=C2C1O (stereo unspecified)	> 100 µM	> 100 µM	> 100 µM	> 100 µM	> 100 µM	> 100 µM	> 100	> 100 µM	> 100 µM	> 100	> 100 µM	> 100 µM	> 100 µM	> 100 µM						
